Assay results reported in ChEMBL document CHEMBL1151584, “6-Substituted Quinazolinone Angiotensin II Receptor Antagonists” (Bioorg Med Chem Lett, 1994).
pIC50: −log10 of the molar value.

Key:
[1] = Percent blockade of the vasopressor response to A II (0.05 ug/kg i.v.) at a dose of 5 mg/kg p.o. in A II challenge model; assay type: functional; settings: route oral
[2] = molecular target: T1, Type-1 angiotensin II receptor (Bos taurus, UniProt P25104); experiment: In vitro binding affinity to angiotensin II receptor in bovine adrenal cortex; assay type: tissue-based
T1 sequence (P25104 whole entry): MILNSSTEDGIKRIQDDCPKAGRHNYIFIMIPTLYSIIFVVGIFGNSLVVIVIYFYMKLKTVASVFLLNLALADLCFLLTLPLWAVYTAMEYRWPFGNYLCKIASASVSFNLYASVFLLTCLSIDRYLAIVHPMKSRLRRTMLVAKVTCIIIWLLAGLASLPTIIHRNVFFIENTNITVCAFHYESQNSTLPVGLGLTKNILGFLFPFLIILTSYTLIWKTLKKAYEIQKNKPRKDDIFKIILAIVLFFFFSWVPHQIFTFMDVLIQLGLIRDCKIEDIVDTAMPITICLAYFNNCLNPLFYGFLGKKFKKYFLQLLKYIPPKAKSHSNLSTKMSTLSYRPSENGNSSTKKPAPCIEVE

Rattus norvegicus = experiment: Decrease in Mean Arterial Blood Pressure(MABP) in Aorta […] rat model at a dose of 3 mg/kg p.o.; assay type: functional; settings: route oral
[3] = Percent blockade of the vasopressor response to A II (0.05 ug/kg i.v.) at a dose of 5 mg/kg p.o. in A II challenge model.; assay type: functional; settings: route oral

| pIC50 [2] | Compound | also measured |
| --- | --- | --- |
| 7.38 | CCCCc1nc2ccc([C@@H]3[C@@H]4C(=O)CC[C@@H]4ON3C)cc2c(=O)n1Cc1ccc(-c2ccccc2-c2nn[nH]n2)cc1 | Activity [1]: 95% |
| 6.82 | CCCCc1nc2ccc([C@@H]3[C@@H]4C(=O)OC[C@@H]4ON3C)cc2c(=O)n1Cc1ccc(-c2ccccc2-c2nnn[nH]2)cc1 |  |
| 6.81 | CCCCc1nc2ccc([C@H]3C4CCCC4ON3C)cc2c(=O)n1Cc1ccc(-c2ccccc2-c2nn[nH]n2)cc1 (stereo partly specified) |  |
| 7.10 | CCCCc1nc2ccc([C@H]3[C@@H]4C(=O)CC[C@@H]4ON3Cc3ccccc3)cc2c(=O)n1Cc1ccc(-c2ccccc2-c2nnn[nH]2)cc1 |  |
| 6.05 | CCCCc1nc2ccc([C@H]3[C@@H]4C(=O)CCC[C@@H]4ON3C)cc2c(=O)n1Cc1ccc(-c2ccccc2-c2nn[nH]n2)cc1 |  |
| 7.42 | CCCCc1nc2ccc([C@H]3OC[C@@H]4ON5[C@@H](CCC5(C)C)[C@@H]43)cc2c(=O)n1Cc1ccc(-c2ccccc2-c2nn[nH]n2)cc1 | MABP (Rattus norvegicus): 45 mmHg |
| 7.01 | CCCCc1nc2ccc([C@H]3[C@@H]4CCC[C@@H]4ON3C)cc2c(=O)n1Cc1ccc(-c2ccccc2-c2nnn[nH]2)cc1 |  |
| 6.96 | CCCCc1nc2ccc(C3=NN[C@H]4C(=O)N(C)C(=O)[C@@H]34)cc2c(=O)n1Cc1ccc(-c2ccccc2-c2nn[nH]n2)cc1 |  |
| 6.98 | CCCCc1nc2ccc([C@@H]3C[C@H]4C(c5ccc(C)cc5)=NO[C@H]4O3)cc2c(=O)n1Cc1ccc(-c2ccccc2-c2nnn[nH]2)cc1 |  |
| 7.21 | CCCCc1nc2ccc([C@@H]3C[C@H](CO)ON3C)cc2c(=O)n1Cc1ccc(-c2ccccc2-c2nn[nH]n2)cc1 |  |
| 6.74 | CCCCc1nc2ccc([C@H]3C4CCCCCCC4ON3C)cc2c(=O)n1Cc1ccc(-c2ccccc2-c2nn[nH]n2)cc1 (stereo partly specified) |  |
| 7.12 | CCCCc1nc2ccc([C@@H]3C[C@H]4C(c5ccccc5)=NO[C@H]4O3)cc2c(=O)n1Cc1ccc(-c2ccccc2-c2nn[nH]n2)cc1 |  |
| 7.01 | CCCCc1nc2ccc([C@H]3[C@@H]4C(=O)CC[C@@H]4ON3C)cc2c(=O)n1Cc1ccc(-c2ccccc2-c2nnn[nH]2)cc1 |  |

Second part, the compound before the results:

| Compound | pIC50 [2] | also measured |
| --- | --- | --- |
| CCCCc1nc2ccc([C@H]3C[C@H](CO)ON3C)cc2c(=O)n1Cc1ccc(-c2ccccc2-c2nnn[nH]2)cc1 | 7.37 |  |
| CCCCc1nc2ccc([C@H]3[C@@H]4C(=O)OC[C@@H]4ON3C)cc2c(=O)n1Cc1ccc(-c2ccccc2-c2nn[nH]n2)cc1 | 7.17 | MABP (Rattus norvegicus): 60 mmHg; Activity [3]: 95% |
| CCCCc1nc2ccc([C@@H]3[C@@H]4C(=O)OC[C@@H]4ON3Cc3ccccc3)cc2c(=O)n1Cc1ccc(-c2ccccc2-c2nn[nH]n2)cc1 | 7.03 |  |
| CCCCc1nc2ccc([C@H]3OC[C@H]4[C@@H]3ON3[C@@H]4CCC3(C)C)cc2c(=O)n1Cc1ccc(-c2ccccc2-c2nnn[nH]2)cc1 | 7.28 |  |
| CCCCc1nc2ccc([C@@H]3C[C@H]4C5CCC(C)(C)N5O[C@H]4O3)cc2c(=O)n1Cc1ccc(-c2ccccc2-c2nn[nH]n2)cc1 (stereo partly specified) | 7.49 |  |
| CCCCc1nc2ccc(C3CCC4CCCCC4O3)cc2c(=O)n1Cc1ccc(-c2ccccc2-c2nn[nH]n2)cc1 (stereo unspecified) |  | MABP (Rattus norvegicus): 15 mmHg |
| CCCCc1nc2ccc([C@H]3[C@@H]4C(=O)OC[C@@H]4ON3Cc3ccccc3)cc2c(=O)n1Cc1ccc(-c2ccccc2-c2nnn[nH]2)cc1 | 6.75 |  |
| CCCCc1nc2ccc([C@@H]3C[C@H]4CCCCN3O4)cc2c(=O)n1Cc1ccc(-c2ccccc2-c2nnn[nH]2)cc1 | 7.38 |  |
| CCCCc1nc2ccc([C@@H]3[C@H]4CCCN3OC4)cc2c(=O)n1Cc1ccc(-c2ccccc2-c2nnn[nH]2)cc1 | 7.80 |  |
